Source: patent publication US20060079512A1, “Dibenzodiazepinone analogues, processes for their production and their use as pharmaceuticals” (Ecopia BioSciences, Inc., priority 2003, published 2006)

Experiments:
[1] = Tissue concentrations 30 min after administration; format: in vivo, female Crl: CD1 mice; conditions: 30 mg/kg
Method: Compounds 1 and 2 were separately dissolved in ethanol (5%), Polysorbate 80 (15%), PEG 400 (5%) and dextrose (5%) at a final concentration of 6 mg/ml (for all parenteral administration routes). For oral administration, Compound 1 was solubilized in Cremophor® EU Ethanol (50%:50%) at a final concentration of 6 mg/ml. Prior to dosing, animals (female Crl: CD1 mice; 6 weeks of age, 22-24 g) were weighed, randomly selected and assigned to the different treatment groups. Compound 1 was administered by the intravenous (iv), subcutaneous (sc), intraperitoneal (ip), or oral (po) route to the assigned animals. Compound 2 was administered by the intravenous (iv), or intraperitoneal (ip) route to the assigned animals. The dosing volume of Compounds 1 and 2 was 5 mL per kg body weight. Animals were anesthetized with 5% isoflurane prior to bleeding. Blood was collected into microtainer tubes containing the anticoagulant K2EDTA by cardiac puncture from each of 4 animals per bleeding timepoint (2 min, 5 min, 15 min, 30 min, 1 h, 2 h, 4 h and 8 h). Following collection, the samples were centrifuged and the plasma obtained from each sample was recovered and stored frozen (at approximately −80° C.) pending analysis. […] Samples were analysed by LC/MS/MS. […]

C6 glioblastoma = assay: In vivo efficacy in glioma model, first series (treatment started 24 hrs after inoculation); set-up: species or system Mus musculus nude mice
Method: The aim of this study was to test whether Compound 1 administered by the i.p. route prevents or delays tumor growth in C6 glioblastoma cell-bearing mice, and to determine an effective dosage regimen.
Animal experiments were performed according to ethical guidelines of animal experimentation (Charte du comité d'éthique du CNRS, juillet 2003) and the English guidelines for the welfare of animals in experimental neoplasia (WORKMAN, P., […], P., BALKWILL, F., et al. (1998). United Kingdom Coordinating Committee on Cancer Research (UKCCCR) Guidelines for the welfare of animals in experimental neoplasia (Second Edition, July 1997; British Journal of Cancer, 77:1-10). Any dead or apparently sick mice were promptly removed and replaced with healthy mice. Sick mice were euthanized upon removal from the cage. Animals were maintained in rooms under controlled conditions of temperature (23±2° C.), humidity (45±5%), photoperiodicity (12 hrs light/12 hrs dark) and air exchange. Animals were housed in polycarbonate cages (5/single cage) that were equipped to provide food and water. Animal bedding consisted of sterile wood shavings that were replaced every other day. Food was provided ad libitum, being placed in the metal lid on the top of the cage. Autoclaved tap water was provided ad libitum. Water bottles were equipped with rubber stoppers and sipper tubes. Water bottles were cleaned, sterilized and replaced once a week. Two different numbers engraved on two earrings identified the animals. Each cage was labeled with a specific code.
Tumor Cell Line: The C6 cell line was cloned from a rat glial tumor induced by N-nitrosomethyurea (NMU) according to Premont et al. (Premont J, Benda P, Jard S., [3H] norepinephrine binding by rat glial cells in culture. Lack of correlation between binding and adenylate cyclase activation. Biochim Biophys Acta. 1975 Feb. 13;381(2):368-76.) after series of alternate culture and animal passages. Cells were grown as adherent monolayers at 37° C. in a humidified atmosphere (5% CO2, 95% air). The culture medium was DMEM supplemented with 2 mM L-glutamine and 10% fetal bovine serum. For experimental use, tumor cells were detached from the culture flask by a 10 min treatment with trypsin-versen. The cells were counted in a hemocytometer and their viability assessed by 0.25% trypan blue exclusion.
Preparation of the Test Article: For the test article, the following procedure was followed for reconstitution (performed immediately preceding injection). The vehicle consisted of a mixture of benzyl alcohol (1.5%), ethanol (8.5%), propylene glycol (27%), PEG 400 (27%), dimethylacetamide (6%) and water (30%). The vehicle solution was first vortexed in order to obtain a homogeneous liquid. 0.6 mL of the vortexed vehicle solution was added to each vial containing the test article (Compound 1). Vials were mixed thoroughly by vortexing for 1 minute and inverted and shaken vigorously. Vials were mixed again prior to injection into each animal.
Animal Inoculation with tumor cells: Experiment started at day 0 (D0). On D0, mice received a superficial intramuscular injection of C6 tumor cells (5×10^5 cells) in 0.1 mL of DMEM complete medium into the upper right posterior leg.
In a first series of experiments, treatment started 24 hrs following inoculation of C6 cells. On the day of the treatment, each mouse was slowly injected with 100 μL of test or control articles by the i.p. route. For all groups, treatment was performed until the tumor volume of the saline-treated mice (group 1) reached approximately 3 cm^3 (around day 16). Mice of group 1 were treated daily with a saline isosmotic solution for 16 days. Mice of group 2 were treated daily with the vehicle solution for 16 days. Mice of group 3 were treated daily with 10 mg/kg of Compound 1 for 16 days. Mice of group 4 were treated every two days with 30 mg/kg of Compound 1 and received 8 treatments. […]

[2] = test system: rat glioblastoma tumor (C6) xenografts; assay: Antitumor efficacy against rat glioblastoma tumor (C6) xenografts; format: in vivo, female swiss nude mice; conditions: intravenous, 75 mg/kg (qd5/2/qd5)
From the text: Antitumor efficacy of Compound 2 against rat glioblastoma tumor (C6) xenografts in female swiss nude mice was accomplished as described above.

Row | SMILES | tissue distribution ([1]; iv and ip dosing) | tissue levels ([1]; sc dosing, compared with ip) | Tumor volume (mm^3) (mean ± SEM) (C6 glioblastoma; 10 mg/kg i.p., Q1 × 16) | % Inhibition (C6 glioblastoma; 10 mg/kg i.p., Q1 × 16, vs saline) [%] | Tumor volume (mm^3) (mean ± SEM) (C6 glioblastoma; 30 mg/kg i.p., Q2 × 8) | % Inhibition (C6 glioblastoma; 30 mg/kg i.p., Q2 × 8, vs saline) [%] | Tumor volume (mm^3) (mean ± SEM) (C6 glioblastoma; 30 mg/kg i.p., Q3 × 6) | % Inhibition (C6 glioblastoma; 30 mg/kg i.p., Q3 × 6, vs saline) [%] | mean value of the tumor volume of all treated groups (C6 glioblastoma; 10-30 mg/kg i.p., compared to the saline group) | Antitumor efficacy [2]
1 | CC(C)=CCC/C(C)=C/CC/C(C)=C/CN1C(=O)c2cccc(O)c2Nc2c(O)cc(O)cc21 [Compound 1, 10-farnesyl-4,6,8-trihydroxy-5,10-dihydrodibenzo[b,e][1,4]diazepin-11-one] | well distributed | significantly lower | 1,220.4 ± 283.46 mm^3 | 59.4 | 1,236.9 ± 233.99 mm^3 | 58.8 | 1,184.1 ± 221.45 mm^3 | 60.6 | significantly reduced | –
2 | CC(C)=CCC/C(C)=C/CC/C(C)=C/CN1C(=O)c2cccc(O)c2N(C)c2c(O)cc(O)cc21 [Compound 2, 10-farnesyl-4,6,8-trihydroxy-5-methyl-5,10-dihydro-dibenzo[b,e][1,4]diazepin-11-one] | – | – | – | – | – | – | – | – | – | Significant efficacy
